Data reported in patent US7135501B2, “Clusianon isomers and use thereof” (priority 2001, dated 2006).

Tests used:
[1] = tested on: HT29 WT; experiment: DNA double-strand breaks, HT29 WT; format: cell-based, human
Method: (§1) DNA isolated after treatment of the cells for various times with substance (I) is for this purpose analyzed by gel electrophoresis.
(§2) Determination of the DNA double-strand breaks is performed on ^14C-labeled DNA. For this purpose, [^14C]d-thymidine-labeled cells are treated with various concentrations of substance (I). The DNA is isolated by an adapted method of Chia Chiao et al.
(§3) The DNA fractionated by gel electrophoresis is subsequently stained with ethidium bromide.
(§4) On a transilluminator (302 nm), the intact DNA which has not migrated in the electric field is separated from the fragmented DNA, which has thus migrated into the gel, by extraction. The isolated gel and DNA fragments are liquefied at +80° C. in the presence of hydrochloric acid. After addition of a scintillator it is possible to determine the radioactivity using a liquid scintillation meter (TPI-CARB 2100RT). The measured radioactivity is indicated in […] (cpm).

[2] = tested on: tumor cell lines, resistant subclones and non-tumor cell lines; experiment: SRB assay, comparison across the cell line panel; format: cell-based
Method: Six unambiguously characterized tumor cell lines of human origin (native cell lines and those converted into resistant subclones) and two non-tumor cell lines are used for further investigations (table 2).
The sensitivity of the cell lines to the substance (I) is determined in a so-called sulforhodamine B (SRB) assay. This is a robust and highly reproducible standard method which is also established for example at the NCI (National Cancer Institute, USA) (Skehan et al. 1990).
The concentration of substance (I) which inhibits cell growth by 50% (IC50, determined from semilogarithmic dose versus effect plots) are indicated.

[3] = tested on: HCT8 WT cells; experiment: Coincubation cytotoxicity experiment with a specific ERK1/2 inhibitor; format: cell-based, human; details: 24 hours, different dosage ratios
Method: HCT8 WT cells were coincubated.

[4] = tested on: ERK1/2 protein; experiment: Western blot analysis of ERK1/2 phosphorylation; format: cell-based, human; details: HCT8 WT, detectable even at IC50 dose
Excerpt: Phosphorylation of certain signal transduction pathways plays an essential role in the regulation of cell growth and gene expression. The protein ERK1/2 (MAP kinase) belongs to the MAP kinase signal transduction pathway.
Treatment of human colon carcinoma cells (HCT8 WT) with substance (I) leads to phosphorylation of this protein, which is detected in a Western blot analysis (FIG. 8).

[5] = tested on: H460 WT cells; experiment: DNA double-strand breaks in [14C]d-thymidine-labeled cells, H460 WT; format: cell-based, human; details: up to 10 times the IC50 concentration, 6 hours
Method: as §1, §2, §3, §4
The results represent averages and their standard deviation from n=3 independent experiments.

[6] = molecular target: T1, topoisomerase I (Homo sapiens, UniProt P11387); experiment: Topo I unwinding assay; format: biochemical; details: for concentration required for topoisomerase I inhibition as multiple of the IC50 of tumor cell growth: in vitro
T1 construct: 160 ng of cell nucleus extract with the topoisomerase I present therein; endogenous in cells
T1 sequence (P11387 1-765): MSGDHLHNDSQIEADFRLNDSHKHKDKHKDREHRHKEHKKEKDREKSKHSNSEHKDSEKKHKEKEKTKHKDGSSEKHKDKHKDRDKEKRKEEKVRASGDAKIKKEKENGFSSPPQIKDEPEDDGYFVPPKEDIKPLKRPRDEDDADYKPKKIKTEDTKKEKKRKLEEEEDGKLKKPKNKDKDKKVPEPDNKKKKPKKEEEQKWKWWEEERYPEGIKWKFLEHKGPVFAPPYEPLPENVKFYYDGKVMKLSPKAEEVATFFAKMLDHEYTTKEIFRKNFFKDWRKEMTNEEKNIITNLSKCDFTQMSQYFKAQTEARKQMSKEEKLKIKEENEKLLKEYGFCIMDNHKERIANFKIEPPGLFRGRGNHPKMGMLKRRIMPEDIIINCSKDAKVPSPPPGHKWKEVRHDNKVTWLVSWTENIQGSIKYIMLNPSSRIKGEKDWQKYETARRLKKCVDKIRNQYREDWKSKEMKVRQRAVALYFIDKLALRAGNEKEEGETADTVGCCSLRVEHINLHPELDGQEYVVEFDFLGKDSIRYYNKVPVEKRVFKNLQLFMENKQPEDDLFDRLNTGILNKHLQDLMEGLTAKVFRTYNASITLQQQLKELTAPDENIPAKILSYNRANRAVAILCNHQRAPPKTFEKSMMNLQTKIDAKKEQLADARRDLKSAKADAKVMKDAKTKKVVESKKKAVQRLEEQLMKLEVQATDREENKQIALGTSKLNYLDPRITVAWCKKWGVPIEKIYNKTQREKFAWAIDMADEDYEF
Excerpt: The assay is based on an ATP-independent unwinding of twisted pBR322 plasmid DNA dimers by topoisomerase I. The two different topological forms of the plasmid DNA, the twisted form and unwound, relaxed form, are separated in this investigation by means of an agarose gel. The enzyme topoisomerase I is obtained for this purpose from cell nucleus extracts of the tumor cell lines.
Cell nucleus extracts are obtained by the method of Sullivan with the modifications of Danks et al.

[7] = molecular target: T2, human telomerase (Homo sapiens, UniProt O14746); experiment: Telomeric Repeat Amplification Assay (TRAP) ELISA; format: biochemical; details: at 50 μg/ml; telomerase from HCT8 WT colon carcinoma cells
T2 construct: human telomerase obtained from cells of a colon carcinoma (HCT8 WT); endogenous in cells; host or cells: HCT8 WT colon carcinoma cells
Method: The effect of substance (I) on human telomerase is determined by carrying out the so-called Telomeric Repeat Amplification Assay (TRAP) ELISA, based on the method of N. W. Kim et al.
This method is based on use of the polymerase chain reaction (PCR). This entails, in a first step, a number of (GGTTAG) motifs being attached by means of the telomerase activity to the 3′ end of a biotin-labeled oligonucleotide (TS=telomerase substrate). In a second step, the products extended in this way are amplified by the PCR technique using TS and RP (R=reverse) primers. In this way, a “ladder” of products in increments of 6 bases (initial size=50 nucleo-tides) is generated. During the amplification, DNP-labeled dCTP is incorporated into the PCR products. Detection and quantification of the synthesized telomerase products using a sandwich ELISA method are a measure of the telomerase enzymatic activity.
The telomerase products carry the biotin-labeled TS primers and bind to the surface of microtiter plates previously coated with streptavidin. An anti-DIG antibody conjugated to POD binds to the […] nucleotides incorporated during the amplification. After addition of the substrate TMB, the telomerase activity is visualized by […] via the onset of the color reaction by the enzyme POD. In this case, the measured absorption is directly proportional to the telomerase activity. […]

[8] = tested on: HCT8 WT bowel cancer cells; experiment: Cell cycle analysis (BrdU/PI flow cytometry); format: cell-based, human; details: IC50 concentration, 24 hours
Method: Flow cytometric investigations by an adapted method of Tsugita M. et al. are used for the analysis.
Exponentially growing HCT8 WT bowel cancer cells are treated with substance (I) with the determined IC50 concentration for 24 hours, and then the cells are incubated with BrdU. The cells fixed with methanol are subjected to a treatment with a detergent (Triton X-100/HCl) in order to denature the DNA strands. After incubation with the fluorescence-labeled antibody (anti-BrdU mAb, FITC-labeled), the second fluorescent dye (PI, propidium iodide) is added.
The DNA content (propidium iodide fluorescence) and the amount of BrdU taken up (FITC fluorescence) are determined using a Coulter flow cytometer (Coulter EPICS XL). Exemplary results are depicted in FIGS. 3a and 3b.
FIGS. 3a and 3b show BrdU and PI uptakes into the DNA of HCT8 WT cells, untreated (control, […]) and treated with substance (I) (IC50, 24 hours, […]). The depicted results are representative of n=3 independent experiments.

[9] = molecular target: DNA polymerase (Thermus aquaticus, UniProt P19821); experiment: Preliminary experiment with the TSR8 template; format: biochemical; details: maximum concentration 50 μg/ml
Method: In order to ensure the effect of substance (I) on telomerase, an effect of substance (I) on DNA polymerase must be ruled out. In a preliminary experiment with TSR8 as internal control, the effect of substance (I) at various concentration levels was ruled out.
Amplification of the TSR8 template depends only on DNA polymerase. Every inhibitor of this enzyme can be detected using the substrate.
The experiment is carried out in triplicates.

T2 sequence (O14746 whole entry): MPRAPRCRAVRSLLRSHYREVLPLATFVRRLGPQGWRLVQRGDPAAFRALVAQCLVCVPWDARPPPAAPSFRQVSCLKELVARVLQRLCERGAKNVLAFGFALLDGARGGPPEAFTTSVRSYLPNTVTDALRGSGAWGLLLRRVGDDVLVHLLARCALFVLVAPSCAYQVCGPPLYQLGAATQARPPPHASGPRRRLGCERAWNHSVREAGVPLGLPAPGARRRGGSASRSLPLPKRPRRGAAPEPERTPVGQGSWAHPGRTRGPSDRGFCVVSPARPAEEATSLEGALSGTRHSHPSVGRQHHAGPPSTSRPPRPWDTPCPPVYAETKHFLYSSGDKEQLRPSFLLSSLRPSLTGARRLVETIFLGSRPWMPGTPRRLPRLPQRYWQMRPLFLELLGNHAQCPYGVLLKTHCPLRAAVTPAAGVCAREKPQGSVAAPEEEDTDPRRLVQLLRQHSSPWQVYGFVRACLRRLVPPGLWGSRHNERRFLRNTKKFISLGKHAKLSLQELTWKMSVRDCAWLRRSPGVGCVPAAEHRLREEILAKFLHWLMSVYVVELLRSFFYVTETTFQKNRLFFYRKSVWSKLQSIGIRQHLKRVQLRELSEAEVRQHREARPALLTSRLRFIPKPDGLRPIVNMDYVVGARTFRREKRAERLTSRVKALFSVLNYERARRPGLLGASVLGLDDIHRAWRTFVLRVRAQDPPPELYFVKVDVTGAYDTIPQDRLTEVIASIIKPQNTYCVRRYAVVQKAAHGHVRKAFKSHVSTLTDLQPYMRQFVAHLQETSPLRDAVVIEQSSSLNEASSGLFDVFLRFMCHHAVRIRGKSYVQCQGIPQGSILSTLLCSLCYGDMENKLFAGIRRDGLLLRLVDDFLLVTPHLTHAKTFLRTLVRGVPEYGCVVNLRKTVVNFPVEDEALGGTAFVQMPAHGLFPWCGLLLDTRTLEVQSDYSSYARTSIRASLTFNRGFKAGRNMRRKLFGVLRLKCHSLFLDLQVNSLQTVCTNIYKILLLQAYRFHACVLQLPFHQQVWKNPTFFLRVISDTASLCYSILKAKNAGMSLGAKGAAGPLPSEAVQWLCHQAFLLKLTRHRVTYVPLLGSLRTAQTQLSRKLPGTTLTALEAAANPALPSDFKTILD
Sequence of DNA polymerase (P19821 whole entry): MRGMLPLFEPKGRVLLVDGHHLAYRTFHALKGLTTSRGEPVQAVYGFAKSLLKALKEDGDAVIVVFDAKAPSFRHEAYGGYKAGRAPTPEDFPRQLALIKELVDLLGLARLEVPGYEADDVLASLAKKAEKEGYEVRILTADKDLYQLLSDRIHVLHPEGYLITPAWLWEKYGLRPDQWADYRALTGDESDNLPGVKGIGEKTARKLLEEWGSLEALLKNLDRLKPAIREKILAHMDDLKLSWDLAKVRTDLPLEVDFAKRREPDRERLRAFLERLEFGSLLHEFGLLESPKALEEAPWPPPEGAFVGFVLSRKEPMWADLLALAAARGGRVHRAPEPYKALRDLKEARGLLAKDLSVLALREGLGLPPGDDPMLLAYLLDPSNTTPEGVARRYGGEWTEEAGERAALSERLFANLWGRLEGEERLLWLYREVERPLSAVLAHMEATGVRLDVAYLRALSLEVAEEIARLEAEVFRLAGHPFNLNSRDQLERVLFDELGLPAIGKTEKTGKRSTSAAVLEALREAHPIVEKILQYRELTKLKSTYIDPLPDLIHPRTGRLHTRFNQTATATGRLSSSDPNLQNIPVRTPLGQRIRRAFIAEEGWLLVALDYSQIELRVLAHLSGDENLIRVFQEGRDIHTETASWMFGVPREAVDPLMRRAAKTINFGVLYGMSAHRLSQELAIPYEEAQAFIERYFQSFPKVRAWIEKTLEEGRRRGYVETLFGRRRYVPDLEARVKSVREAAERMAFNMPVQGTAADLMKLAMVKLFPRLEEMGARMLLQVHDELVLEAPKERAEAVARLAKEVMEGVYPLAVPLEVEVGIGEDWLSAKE

Row | Structure (SMILES) | induction of DNA double-strand breaks [1] | cytotoxicity for the non-tumor cell lines compared with tumor cell lines ([2]; fibroblasts of the 3T3 and MCR 5 lines) | cross-resistance to the indicated cytostatics ([2]; resistant subclones versus native cell lines) | cytotoxicity on coincubation with a specific ERK1/2 inhibitor (MAP kinase inhibitor) [3] | phosphorylation of the ERK1/2 protein [4] | induction of DNA double-strand breaks [5] | inhibition at 100 µg/mL ([6]; at 100 μg/ml, 160 ng cell nucleus extract, pBR322 plasmid DNA) | concentration required for topoisomerase I inhibition as multiple of the IC50 of tumor cell growth [6] | inhibition of human telomerase [7] | effect on cell cycle (BrdU uptake) [8] | inhibition of Tag polymerase (TSR8 template amplification) [9]
1 | CC(C)=CCC1=C(O)[C@]2(C(=O)c3ccccc3)C(=O)[C@@](CC=C(C)C)(CC(CC=C(C)C)C2(C)C)C1=O (stereo partly drawn) [Substance (I), 1-Benzoyl-8,8-dimethyl-2-hydroxy-3,5,7-tris-(3-methyl-2-butenyl)bicyclo[3.3.1]non-2-ene-4,9-dione] | substantial amounts of double-strand breaks | considerably less | no cross-resistance | pronounced synergism | dose-dependent phosphorylation | significant amounts of double-strand breaks | 100% | 20 times | Complete inhibition | inhibition of the synthesis phase | does not lead to a significant inhibition
2 | CC[C@@]1(O)C(=O)OCc2c1cc1n(c2=O)Cc2cc3c(CN(C)C)c(O)ccc3nc2-1 [topotecan, reference compound] |  |  |  |  |  |  |  | 1000 times |  |  | 
